According to US20250275975A1, “Methods of Treating Neuropathies” (Athira Pharma, Inc., priority 2023, published 2025):

Assays:
[1] = tested on: STZ DNP rats; experiment: Mechanical allodynia rescue assay (Von Frey paw withdrawal threshold), Example B1; type: in vivo, Sprague Dawley rats; set-up: key to Efficacy: rescue of mechanical allodynia behavior as measured by paw withdrawal threshold: NS indicates treatment did not significantly affect paw withdrawal threshold vs disease control.; + indicates p < 0.05 vs disease control.; ++ indicates p < 0.01 vs disease control.; +++ indicates p < 0.001 vs disease control; conditions: for Efficacy: rescue of mechanical allodynia behavior as measured by paw withdrawal threshold: study day 28 after 14 days of treatment, p vs disease control
Source text: Hyperglycemic rats consistently develop neuropathic pain-associated behaviors including mechanical allodynia. Allodynia refers to a type of neuropathic pain characterized by increased sensitivity to stimuli that are not normally painful. Mechanical allodynia is quantified in rats by determination of the force required to induce a withdrawal of the paw and is negatively associated with allodynia such that, the lower the force required to induce paw withdrawal, the greater the pain behavior.
(§1) A series of studies were performed to determine the ability of HGF/MET positive modulator compounds to reduce the mechanical allodynia pain behaviors in hyperglycemic rats. A single dose of STZ (55 mg/kg via intravenous (IV)) was administered to induce a Type I diabetic hyperglycemia in male Sprague Dawley rats. Hyperglycemia was confirmed 4 days after STZ administration, with blood glucose levels above 200 mg/dL considered successful model induction. 14 days after disease induction, test compound treatment was initiated and continued as daily compound administration over the remaining course of the study. Route and dose for each compound were determined by pharmacokinetic and distribution modelling. Control groups included animals with no diabetic induction (Sham control), animals with diabetes but treated only with formulation vehicle (DNP (diabetic peripheral neuropathy) control), and disease animals treated with pregabalin (30 mg/kg via PO), which is known to reduce neuropathic pain behaviors.
(§2) Changes to neuropathic pain behaviors were assessed after 14 days of compound treatment on study day 28. Mechanical allodynia was tested by placing each animal on an elevated wire grid and stimulating the plantar surface of the right rear paw with a series of filaments corresponding to increasing orders of force, reaching a maximum force of 60 grams (Aesthesio manual Von Frey filaments). The force of the filament that causes paw withdrawal was considered the paw withdrawal threshold in grams. Pain sensitivity in response to thermal hyperalgesia was determined by using hot plate method and represented as paw withdrawal latency (PWL). Rats were placed on the hot plate (52.5° C.), and the time taken to show the nocifensive behavior (either licking or jumping) of any of their paws was recorded. Statistical comparison of treatment groups to DNP control groups was performed by one-way ANOVA followed by Dunnett's multiple comparisons test.

[2] = tested on: STZ DNP rats; experiment: Thermal hyperalgesia rescue assay (hot plate paw withdrawal latency), Example B1; type: in vivo, Sprague Dawley rats; set-up: key to Efficacy: rescue of thermal hyperalgesia behavior as measured by paw withdrawal latency: NS indicates treatment did not significantly affect paw withdrawal latency vs disease control.; + indicates p < 0.05 vs disease control.; ++ indicates p < 0.01 vs disease control.; +++ indicates p < 0.001 vs disease control; conditions: for Efficacy: rescue of thermal hyperalgesia behavior as measured by paw withdrawal latency: study day 28 after 14 days of treatment, hot plate 52.5° C., p vs disease control
Experimental: as §1, §2

[3] = tested on: neuron-Schwann cell co-cultures; experiment: Sensory neurite extension and myelination in healthy primary dorsal root ganglia cultures; type: cell-based, rat; set-up: key to Significant promotion of Neurite Network Extension of Sensory Neurons / Significant promotion of Myelination of Sensory neurons by Schwann Cells: “NS” indicates the treatment did not have a significant effect; “+” indicates the treatment had a significant effect; conditions: for Significant promotion of Myelination of Sensory neurons by Schwann Cells / Significant promotion of Neurite Network Extension of Sensory Neurons: Healthy cultures, vs vehicle
Experimental: (§3) To assess the effects of test compound treatment on these structures central to neuropathic pathology, peripheral sensory neurons were modeled using dissociated primary cultures of neurons and Schwann cells collected from fetal rats. Fetal rats were collected from pregnant females after 15 days of gestation, and the dorsal root ganglion was dissociated via trypsin digestion and mechanical disruption. The resulting cells were plated and allowed to grow for 7 days. On day 7 in culture, ascorbic acid at a concentration of 50 μM was added to the culture to promote myelination of sensory neurons by Schwann cells.
To model the effects of Compound 5a in the normal peripheral nervous system, neuron-Schwann cell co-cultures were treated with Compound 5a in combination with low doses of recombinant hepatocyte growth factor (HGF). On day 8 in culture, experimental treatments were added to culture media. These treatments included HGF with or without Compound 5a. Some cultures were treated with the steroid hormone B-estradiol to serve as a positive control. Treatments were applied every other day, and on day 21 in culture the cultures were fixed with ethanol and processed for immunodetection of both microtubule-associate protein 2 (MAP2) to reveal neurons and their neurites as well as myelin-associated glycoprotein (MAG) to reveal Schwann cells and the extent of their myelination of cultured neurites. Cells were counterstained with Hoechst DNA dye to identify individual cells.
(§4) 30 fluorescent images were captured for each treatment group and images were quantified by automated image analysis. Neurite network extension was quantified as the total length of MAP2-positive neurites per cell measured in μm. Myelination by Schwann cells was quantified by the area of overlap between MAP2-positive neurites and MAG-positive myelin wrapping measured in μm^2. Statistical analysis was performed as a one-way ANOVA with Fisher's LSD post-test against either vehicle- or Cisplatin-treated groups respectively.

[4] = tested on: neuron-Schwann cell co-cultures injured with cisplatin; experiment: Sensory neurite extension and myelination in cisplatin-injured primary dorsal root ganglia cultures; type: cell-based, rat; set-up: key to Significant promotion of Neurite Network Extension of Sensory Neurons / Significant promotion of Myelination of Sensory neurons by Schwann Cells: “NS” indicates the treatment did not have a significant effect; “+” indicates the treatment had a significant effect; conditions: for Significant promotion of Myelination of Sensory neurons by Schwann Cells / Significant promotion of Neurite Network Extension of Sensory Neurons: +Cisplatin injury (10 μg/ml, 24 hours), vs Cisplatin-treated group
Experimental: as §3
To model the effects of neuropathic injury in sensory neurons and associated Schwann cells, cultures were injured with the chemotherapy drug cisplatin. These cultures were prepared identically to those described above. In this system, Compound 5a, HGF, and β-estradiol treatments began on culture day 19. Also on culture day 19, cisplatin (10 μg/ml) was added to the cultures for 24 hours. On culture day 20, cisplatin was removed from the media while test compound treatments were replaced for 24 hours. On day 21 in culture, cells were fixed and processed for immunodetection as described above.
as §4

[5] = Compound 5a 0.1 μM with HGF 0.05 ng/ml
[6] = Compound 5a 0.5 μM with HGF 0.05 ng/ml
[7] = Compound 5a 1 μM with HGF 0.05 ng/ml
[8] = healthy cultures, 0.5 μM Compound 5a with HGF (0.05 ng/ml)
[9] = injured cultures, Compound 5a at 0.1, 0.5, and 1 μM with HGF (0.05 ng/ml)

Q: What does the source list for `CCC(C)CN1CC2N(Cc3ccc(C(F)(F)F)cc3)CCC(=O)N2[C@@H](C)C1=O` (stereo partly shown) [Compound 5a]?
A: Efficacy: rescue of mechanical allodynia behavior as measured by paw withdrawal threshold ([1]; 0.003 mg/kg IV daily): NS; Efficacy: rescue of mechanical allodynia behavior as measured by paw withdrawal threshold ([1]; 0.015 mg/kg IV daily): NS; Efficacy: rescue of mechanical allodynia behavior as measured by paw withdrawal threshold ([1]; 0.075 mg/kg IV daily): NS; Efficacy: rescue of mechanical allodynia behavior as measured by paw withdrawal threshold ([1]; 0.375 mg/kg IV daily): ++ (++ indicates p < 0.01 vs disease control.); Efficacy: rescue of mechanical allodynia behavior as measured by paw withdrawal threshold ([1]; 1 mg/kg PO daily): ++ (++ indicates p < 0.01 vs disease control.); Efficacy: rescue of mechanical allodynia behavior as measured by paw withdrawal threshold ([1]; 2 mg/kg PO daily): +++ (+++ indicates p < 0.001 vs disease control.); Efficacy: rescue of mechanical allodynia behavior as measured by paw withdrawal threshold ([1]; 10 mg/kg PO daily): +++ (+++ indicates p < 0.001 vs disease control.); Efficacy: rescue of mechanical allodynia behavior as measured by paw withdrawal threshold ([1]; 20 mg/kg PO daily): +++ (+++ indicates p < 0.001 vs disease control.); rescue of the mechanical allodynia behavior as measured by paw withdrawal threshold ([1]; STZ DNP rats): significant rescue; Efficacy: rescue of thermal hyperalgesia behavior as measured by paw withdrawal latency ([2]; 0.003 mg/kg IV daily): + (+ indicates p < 0.05 vs disease control.); Efficacy: rescue of thermal hyperalgesia behavior as measured by paw withdrawal latency ([2]; 0.015 mg/kg IV daily): NS; Efficacy: rescue of thermal hyperalgesia behavior as measured by paw withdrawal latency ([2]; 0.075 mg/kg IV daily): + (+ indicates p < 0.05 vs disease control.); Efficacy: rescue of thermal hyperalgesia behavior as measured by paw withdrawal latency ([2]; 0.375 mg/kg IV daily): ++ (++ indicates p < 0.01 vs disease control.); Efficacy: rescue of thermal hyperalgesia behavior as measured by paw withdrawal latency ([2]; 1 mg/kg PO daily): NS; Efficacy: rescue of thermal hyperalgesia behavior as measured by paw withdrawal latency ([2]; 2 mg/kg PO daily): + (+ indicates p < 0.05 vs disease control.); Efficacy: rescue of thermal hyperalgesia behavior as measured by paw withdrawal latency ([2]; 10 mg/kg PO daily): +++ (+++ indicates p < 0.001 vs disease control.); Efficacy: rescue of thermal hyperalgesia behavior as measured by paw withdrawal latency ([2]; 20 mg/kg PO daily): +++ (+++ indicates p < 0.001 vs disease control.); rescue of thermal allodynia behavior as measured by paw withdrawal latency ([2]; STZ DNP rats): significant rescue; Significant promotion of Myelination of Sensory neurons by Schwann Cells [3, 5]: +; Significant promotion of Neurite Network Extension of Sensory Neurons [3, 5]: NS; Significant promotion of Myelination of Sensory neurons by Schwann Cells [3, 6]: +; Significant promotion of Neurite Network Extension of Sensory Neurons [3, 6]: +; Significant promotion of Myelination of Sensory neurons by Schwann Cells [3, 7]: NS; Significant promotion of Neurite Network Extension of Sensory Neurons [3, 7]: NS; myelination [3, 8]: significant promotion; neurite network extension [3, 8]: significant promotion; Significant promotion of Myelination of Sensory neurons by Schwann Cells [4, 5]: +; Significant promotion of Neurite Network Extension of Sensory Neurons [4, 5]: +; Significant promotion of Myelination of Sensory neurons by Schwann Cells [4, 6]: +; Significant promotion of Neurite Network Extension of Sensory Neurons [4, 6]: +; Significant promotion of Myelination of Sensory neurons by Schwann Cells [4, 7]: +; Significant promotion of Neurite Network Extension of Sensory Neurons [4, 7]: +; myelination [4, 9]: significantly promoted; neurite network extension [4, 9]: significantly promoted
